Tests used:
[1] = incorporated into liposomes; cited from earlier work
[2] = system: tumor cells; conditions: cited from earlier work
[3] = hirudin 10 mg/kg, at the time of tumor cell injection; almost all above limits of detection; cited from earlier work
[4] = system: B16F1 cells; experiment: Melanoma experimental metastasis assay; assay type: in vivo, mouse; conditions: 1× dose s.c. 30 min before i.v. B16F1 cells; day 17
Description: FIG. 4 depicts heparins with selectin-inhibitory activity that inhibit metastasis of melanoma cells. Mice were injected subcutaneously with “1×” heparin (A) or “3×” heparin (B) (or PBS as a control), and 30 minutes later were injected intravenously with B16F1 cells. After 17 days, mice were euthanized, lungs perfused with formalin through the trachea and then allowed to fix in formalin for a minimum of 24 hours. Metastasis was quantified by measuring lung weight, which correlated well with the physical appearance of the lungs, documented by photography (representative pictures are shown below quantification). Open circles each represent one mouse and horizontal bars represent mean lung weights. P-values were determined by a Student's T-test, assuming two-tailed, unequal distribution.
Melanoma Experimental Metastasis Assay: Mice were injected with heparin and 500,000 B16F1 cells using the protocol described for the carcinoma metastasis assay. […] Lung weights were determined by removing the lungs from formalin, briefly setting them on filter paper to remove excess liquid, and then weighing them on a Sartorius analytical scale.
Heparin Inhibition of Melanoma Metastasis is Also Dependent on Selectin-Inhibitory Activity. […] Seventeen days following injection, the lungs were excised and evaluated for the presence of metastatic foci. […]

[5] = Plasma anti-Xa levels after subcutaneous heparin dosing; assay type: in vivo; conditions: mice
Description: Anti-Xa levels were measured in plasma from multiple mice, 30 min after each mouse received a single “1×” or “3×” subcutaneous dose of various heparins. Each open circle represents one mouse and horizontal bars represent mean values.
Titrating Heparin Dosage via Plasma Anti-Xa Levels: Mice were injected subcutaneously with 100 ul of UFH, TINZ, or FOND diluted in PBS, at various final concentrations. Thirty minutes later, blood was collected by cardiac puncture into 1 cc syringe containing 30 ul 10 mM EDTA. Samples were centrifuged twice at 2,000 rcf at 24° C. to collect the plasma, which was stored at −80° C. until analysis for anti-Xa activity. […] The resulting chromophore was measured at 405 nm. Plasma heparin levels were calculated in anti-Xa units/ml by comparing against a standard curve of heparin-spiked mouse plasma samples. Standards and samples were analyzed in triplicate. […]
Pharmacokinetic Studies in Mice to Normalize Heparin Dosing. […] Therapeutic levels for patients treated with heparin for venous thromboembolism are ˜1 anti-factor Xa unit/ml for LMWHs, typically measured at 3-4 hours after injection. […] Plasma anti-Xa levels were analyzed 30 minutes after subcutaneous delivery, which is when the tumor cells would be injected into the vasculature in the planned metastasis experiments. […] Single heparin doses were increased from “1×” to “3×” dosing, and analyzed the anti-Xa levels (FIG. 2B). […]

Compound: CCCCCCCCCCCCCCCC(=O)OCn1ccnc1 [PMI, 1-(palmitoyloxymethyl)imidazole]
- apparent pKa [1]: 5.12

Compound: hirudin
- pulmonary arrest of tumor cells ([2]; hirudin 10 mg/kg twenty minutes prior to tumor cell injection): decreased pulmonary arrest of tumor cells
- formation of metastatic foci ([2]; hirudin 20 mg/kg before, 4 h after, then every other day for 10 days, i.v. tumor cells): significant decrease in formation of metastatic foci
- clotting time in activated partial thromboplastin time test [3]: > 300 s

Compound: CO[C@H]1O[C@H](COS(=O)(=O)O)[C@@H](O[C@@H]2O[C@@H](C(=O)O)[C@@H](O[C@H]3O[C@H](COS(=O)(=O)O)[C@@H](O[C@@H]4O[C@H](C(=O)O)[C@@H](O[C@H]5O[C@H](COS(=O)(=O)O)[C@@H](O)[C@H](O)[C@H]5NS(=O)(=O)O)[C@H](O)[C@H]4O)[C@H](OS(=O)(=O)O)[C@H]3NS(=O)(=O)O)[C@H](O)[C@H]2OS(=O)(=O)O)[C@H](O)[C@H]1NS(=O)(=O)O [FOND, Fondaparinux]
- metastasis (lung weight) [4]: no effect
- mean plasma anti-Xa level ([5]; 30 min after single subcutaneous 1× dose, range meant: therapeutic ~1 anti-factor Xa unit/ml): within this range
- plasma anti-Xa level ([5]; 30 min after single subcutaneous 3× dose): at or above the accepted range for clinical anticoagulation
